{"source": "ChEMBL document CHEMBL5352398", "about": "(Eur J Med Chem, 2022)", "key": {"[1]": {"target": "T1, Solute carrier family 2, facilitated glucose transporter member 9 (Mus musculus) (UniProt Q3T9X0)", "T1 sequence (whole entry)": "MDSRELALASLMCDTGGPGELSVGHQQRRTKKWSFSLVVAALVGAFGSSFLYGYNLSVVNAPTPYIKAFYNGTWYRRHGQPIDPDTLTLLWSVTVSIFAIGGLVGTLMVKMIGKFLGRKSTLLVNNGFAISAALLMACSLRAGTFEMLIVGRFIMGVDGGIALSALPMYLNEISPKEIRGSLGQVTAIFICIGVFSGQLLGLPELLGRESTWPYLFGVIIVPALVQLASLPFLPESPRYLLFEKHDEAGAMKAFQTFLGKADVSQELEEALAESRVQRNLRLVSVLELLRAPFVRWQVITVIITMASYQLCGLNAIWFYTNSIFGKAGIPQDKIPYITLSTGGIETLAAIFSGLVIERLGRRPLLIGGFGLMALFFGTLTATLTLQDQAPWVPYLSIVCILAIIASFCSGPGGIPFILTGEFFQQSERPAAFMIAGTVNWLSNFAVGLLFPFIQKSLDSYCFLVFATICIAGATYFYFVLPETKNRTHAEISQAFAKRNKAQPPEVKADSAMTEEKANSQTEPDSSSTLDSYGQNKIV", "experiment": "Inhibition of mouse GLUT9 transfected in human HEK293 cells assessed as inhibition of uric acid induced current at 10 uM by cell patch-clamp assay", "type": "cell-based"}, "HepG2 [2]": {"system": "HepG2", "experiment": "Cytotoxicity against human HepG2 cells assessed as reduction in cell viability at 100 uM incubated for 72 hrs by MTT assay", "type": "toxicity, cell-based", "details": "hepg2, 72 h"}, "[3]": {"experiment": "Hepatotoxicity in Kunming mouse assessed as increase in AST level in serum at 50 mg/kg,po for 14 days in presence of BSO", "type": "toxicity, organism-based", "details": "in vivo, 336 h, time 14 day"}, "[4]": {"experiment": "Renal toxicity in Kunming mouse assessed as effect on creatinine level at 50 mg/kg,po for 14 days", "type": "organism-based", "details": "in vivo, 336 h, time 14 day"}, "[5]": {"target": "T2, Solute carrier family 2, facilitated glucose transporter member 9 (Mus musculus, UniProt Q3T9X0)", "T2 sequence (Q3T9X0 whole entry)": "T1 sequence (whole entry)", "experiment": "Inhibition of mouse GLUT9 transfected in human HEK293 cells assessed as inhibition of uric acid induced current by cell patch-clamp assay", "type": "cell-based"}, "[6]": {"experiment": "Tmax in Sprague-Dawley rat at 5 mg/kg, po and measured upto 24 hrs by LC-MS/MS analysis", "type": "ADME, organism-based", "details": "in vivo"}, "[7]": {"experiment": "Tmax in Sprague-Dawley rat at 5 mg/kg, iv and measured upto 24 hrs by LC-MS/MS analysis", "type": "ADME, organism-based", "details": "in vivo"}, "[8]": {"experiment": "Cmax in Sprague-Dawley rat at 5 mg/kg, po and measured upto 24 hrs by LC-MS/MS analysis", "type": "ADME, organism-based", "design": "dose 5 mg/kg, time < 24 hrs, route po", "details": "in vivo"}, "[9]": {"experiment": "Cmax in Sprague-Dawley rat at 5 mg/kg, iv and measured upto 24 hrs by LC-MS/MS analysis", "type": "ADME, organism-based", "design": "time < 24 hrs, dose 5 mg/kg, route iv", "details": "in vivo"}, "[10]": {"experiment": "Half life in Sprague-Dawley rat at 5 mg/kg, po and measured upto 24 hrs by LC-MS/MS analysis", "type": "ADME, organism-based", "details": "in vivo"}, "[11]": {"experiment": "AUC(0 to infinity) in Sprague-Dawley rat at 5 mg/kg, po and measured upto 24 hrs by LC-MS/MS analysis", "type": "ADME, organism-based", "design": "time < 24 hrs, dose 5 mg/kg, route po", "details": "in vivo"}, "[12]": {"experiment": "AUC(0 to infinity) in Sprague-Dawley rat at 5 mg/kg, iv and measured upto 24 hrs by LC-MS/MS analysis", "type": "ADME, organism-based", "design": "dose 5 mg/kg, time < 24 hrs, route iv", "details": "in vivo"}, "[13]": {"experiment": "MRT (0 to infinity) in Sprague-Dawley rat at 5 mg/kg, po and measured upto 24 hrs by LC-MS/MS analysis", "type": "ADME, organism-based", "details": "in vivo"}, "[14]": {"experiment": "Oral bioavailability in Sprague-Dawley rat at 5 mg/kg and measured upto 24 hrs by LCMS analysis", "type": "ADME, organism-based", "details": "in vivo"}, "[15]": {"experiment": "Cytotoxicity against human HepG2 cells assessed as inhibition of cell growth at 400 uM incubated for 72 hrs by MTT assay relative to control", "type": "toxicity, cell-based"}, "[16]": {"experiment": "Cytotoxicity against human HK-2 cells assessed as inhibition of cell growth at 400 uM incubated for 72 hrs by MTT assay relative to control", "type": "toxicity, cell-based"}, "[17]": {"experiment": "Subacute toxicity in Kunming mouse assessed as animal death at 50 mg/kg,po for 14 days", "type": "organism-based", "details": "in vivo, 336 h, time 14 day"}, "[18]": {"experiment": "Subacute toxicity in Kunming mouse assessed as body weight change at 50 mg/kg,po for 14 days", "type": "organism-based", "details": "in vivo, 336 h, time 14 day"}, "[19]": {"experiment": "Subacute toxicity in Kunming mouse assessed as lethargy at 50 mg/kg,po for 14 days", "type": "organism-based", "details": "in vivo, 336 h, time 14 day"}, "[20]": {"experiment": "Subacute toxicity in Kunming mouse assessed as clonic convulsion at 50 mg/kg,po for 14 days", "type": "organism-based", "details": "in vivo, 336 h, time 14 day"}, "[21]": {"experiment": "Subacute toxicity in Kunming mouse assessed as anorexia at 50 mg/kg,po for 14 days", "type": "organism-based", "details": "in vivo, 336 h, time 14 day"}, "[22]": {"experiment": "Hepatotoxicity in Kunming mouse assessed as increase in ALT level in serum at 50 mg/kg,po for 14 days in presence of BSO", "type": "toxicity, organism-based", "details": "in vivo, 336 h, time 14 day"}, "[23]": {"experiment": "Renal toxicity in Kunming mouse assessed as effect on BUN level at 50 mg/kg,po for 14 days", "type": "organism-based", "details": "in vivo, 336 h, time 14 day"}, "[24]": {"experiment": "Hepatotoxicity in Kunming mouse assessed as reduction in serum GSH level at 50 mg/kg, ip and incubated for 1 hr relative to control", "type": "toxicity, organism-based", "design": "scale not given: the % may be the effect or the level left", "details": "in vivo"}, "[25]": {"experiment": "Hepatotoxicity in Kunming mouse assessed as reduction in GSH level in serum at 50 mg/kg, ip and incubated for 1 hr (reference value: 41.68 uM)", "type": "toxicity, organism-based", "details": "in vivo"}, "[26]": {"experiment": "Hepatotoxicity in Kunming mouse assessed as reduction in serum GSH level at 50 mg/kg, ip and incubated for 12 hrs", "type": "toxicity, organism-based", "details": "in vivo"}, "[27]": {"experiment": "Toxicity in Kunming mouse assessed as steatosis in liver at 50 mg/kg, po and measured after 14 days by HE staining based microscopy", "type": "organism-based", "details": "in vivo, 336 h, time 14 day"}, "[28]": {"experiment": "Toxicity in Kunming mouse assessed as inflammatory infiltration in liver at 50 mg/kg, po administered and measured after 14 days by HE staining", "type": "organism-based", "details": "in vivo, 336 h, time 14 day"}, "[29]": {"experiment": "Toxicity in Kunming mouse assessed as appearance of normal tubular structure in kidney at 50 mg/kg, po administered and measured after 14 days by HE staining", "type": "organism-based", "details": "in vivo, 336 h, time 14 day"}, "[30]": {"experiment": "Toxicity in Kunming mouse assessed as appearance of normal glomerulus cells in kidney at 50 mg/kg, po administered and measured after 14 days by HE staining", "type": "organism-based", "details": "in vivo, 336 h, time 14 day"}, "Mus musculus": {"system": "Mus musculus", "experiment": "Anti-hyperuricemic activity against potassium oxonate induced hyperuricemia in Kunming mouse model assessed as decrease in serum urate level at 4 mg/kg, po and measured after 3 hrs", "type": "functional, organism-based"}, "HepG2 [31]": {"system": "HepG2", "experiment": "Cytotoxicity against human HepG2 cells assessed as reduction in cell viability upto 400 uM incubated for 24 hrs by MTT assay", "type": "toxicity, cell-based", "details": "hepg2, 24 h"}, "[32]": {"experiment": "Toxicity in Kunming mouse assessed as mild inflammatory infiltration in liver at 50 mg/kg, po and measured after 14 days by HE staining based microscopy", "type": "organism-based", "details": "in vivo, 336 h, time 14 day"}, "[33]": {"experiment": "Toxicity in Kunming mouse assessed as dilated vacuolization in liver at 50 mg/kg, po and measured after 14 days by HE staining based microscopy", "type": "organism-based", "details": "in vivo, 336 h, time 14 day"}, "[34]": {"experiment": "Toxicity in Kunming mouse assessed as inflammatory infiltration in kidney at 50 mg/kg, po administered and measured after 14 days by HE staining", "type": "organism-based", "details": "in vivo, 336 h, time 14 day"}}, "note": "Calls of active or inactive are those of the source. The calls are words filed in the database; no cut-off is given here."}
{"compound": "CCc1oc2ccccc2c1C(=O)c1cc(Br)c(O)c(Br)c1", "note": "[BENZBROMARONE]", "values": [{"measurement": "inhibition", "setting": "[1]", "value": 26, "unit": "%"}, {"measurement": "Activity", "setting": "HepG2 [2]", "value": "Toxic"}, {"measurement": "Activity", "setting": "[3]", "value": "Non-Toxic"}, {"measurement": "Activity", "setting": "[4]", "value": "Non-Toxic"}, {"measurement": "IC50", "setting": "[5]", "value": "> 20", "unit": "µM"}, {"measurement": "Tmax", "setting": "[6]", "value": 0.63, "unit": "h"}, {"measurement": "Tmax", "setting": "[7]", "value": 0.5, "unit": "h"}, {"measurement": "Cmax", "setting": "[8]", "value": 4250, "unit": "ng/mL"}, {"measurement": "Cmax", "setting": "[9]", "value": 14700, "unit": "ng/mL"}, {"measurement": "half-life", "setting": "[10]", "value": 1.79, "unit": "h"}, {"measurement": "AUC(0-inf)", "setting": "[11]", "value": 11100, "unit": "ng·h/mL"}, {"measurement": "AUC(0-inf)", "setting": "[12]", "value": 30700, "unit": "ng·h/mL"}, {"measurement": "MRT inf", "setting": "[13]", "value": 3.48, "unit": "h"}, {"measurement": "bioavailability", "setting": "[14]", "value": 36.1, "unit": "%"}, {"measurement": "inhibition at 72 h, 400 µM", "setting": "[15]", "value": 65.7, "unit": "%"}, {"measurement": "inhibition at 72 h, 400 µM", "setting": "[16]", "value": 40.1, "unit": "%"}, {"measurement": "Activity", "setting": "[17]", "value": "Non-Toxic"}, {"measurement": "Activity", "setting": "[18]", "value": "Non-Toxic"}, {"measurement": "Activity", "setting": "[19]", "value": "Non-Toxic"}, {"measurement": "Activity", "setting": "[20]", "value": "Non-Toxic"}, {"measurement": "Activity", "setting": "[21]", "value": "Non-Toxic"}, {"measurement": "Activity", "setting": "[22]", "value": "Non-Toxic"}, {"measurement": "Activity", "setting": "[23]", "value": "Non-Toxic"}, {"measurement": "Activity", "setting": "[24]", "value": 74.29, "unit": "%"}, {"measurement": "Activity", "setting": "[25]", "value": 10.72, "unit": "µM"}, {"measurement": "Activity", "setting": "[26]", "value": "Toxic"}, {"measurement": "Activity", "setting": "[27]", "value": "Non-Toxic"}, {"measurement": "Activity", "setting": "[28]", "value": "Non-Toxic"}, {"measurement": "Activity", "setting": "[29]", "value": "Non-Toxic"}, {"measurement": "Activity", "setting": "[30]", "value": "Non-Toxic"}, {"measurement": "Activity", "setting": "Mus musculus", "value": "Active"}, {"measurement": "Activity", "setting": "HepG2 [31]", "value": "Toxic"}, {"measurement": "Activity", "setting": "[32]", "value": "Toxic"}, {"measurement": "Activity", "setting": "[33]", "value": "Toxic"}, {"measurement": "Activity", "setting": "[34]", "value": "Toxic"}]}
